Measured values reported in the NIST ThermoML archive (doi:10.1016/j.fluid.2008.03.004).

Experiment: xn = mol fraction of the nth substance listed
Conditions: 101 kPa, Liquid; for speed of sound: Sing-around technique in a fixed-path interferometer

CCOC(C)(C)C [2-ethoxy-2-methylpropane] + Cc1cccc(C)c1
Conditions	mass density [kg/m3]	speed of sound [m/s]
288.15 K, x1 = 0.05	862.187	1345.6
288.15 K, x1 = 0.099	856.037	1332.2
288.15 K, x1 = 0.2	843.698	1303.2
288.15 K, x1 = 0.3	831.159	1274.6
288.15 K, x1 = 0.4	818.865	1245.5
288.15 K, x1 = 0.497	806.713	1217.2
288.15 K, x1 = 0.598	794.326	1188.6
288.15 K, x1 = 0.698	782.295	1161.7
288.15 K, x1 = 0.8	770.134	1133.6
288.15 K, x1 = 0.898	757.936	1106.8
288.15 K, x1 = 0.95	751.668	1092.8
288.15 K, x1 = 1	744.955	1076.4
290.65 K, x1 = 0.05	860.034	1334.7
290.65 K, x1 = 0.099	853.866	1321.5
290.65 K, x1 = 0.2	841.488	1292.6
290.65 K, x1 = 0.3	828.907	1263.8
290.65 K, x1 = 0.4	816.576	1234.8
290.65 K, x1 = 0.497	804.386	1206.4
290.65 K, x1 = 0.598	791.955	1177.8
290.65 K, x1 = 0.698	779.883	1150.8
290.65 K, x1 = 0.8	767.68	1122.5
290.65 K, x1 = 0.898	755.44	1096
290.65 K, x1 = 0.95	749.148	1081.9
290.65 K, x1 = 1	742.482	1065.1
293.15 K, x1 = 0.05	857.873	1324.1
293.15 K, x1 = 0.099	851.684	1310.9
293.15 K, x1 = 0.2	839.267	1282
293.15 K, x1 = 0.3	826.644	1253.1
293.15 K, x1 = 0.4	814.272	1224.1
293.15 K, x1 = 0.497	802.042	1195.6
293.15 K, x1 = 0.598	789.571	1167
293.15 K, x1 = 0.698	777.456	1140
293.15 K, x1 = 0.8	765.209	1111.5
293.15 K, x1 = 0.898	752.927	1085.2
293.15 K, x1 = 0.95	746.612	1070.8
293.15 K, x1 = 1	739.947	1053.7
295.65 K, x1 = 0.05	855.708	1313.4
295.65 K, x1 = 0.099	849.502	1300.3
295.65 K, x1 = 0.2	837.044	1271.3
295.65 K, x1 = 0.3	824.379	1242.3
295.65 K, x1 = 0.4	811.966	1213.3
295.65 K, x1 = 0.497	799.693	1184.7
295.65 K, x1 = 0.598	787.18	1156
295.65 K, x1 = 0.698	775.026	1129.1
295.65 K, x1 = 0.8	762.735	1100.5
295.65 K, x1 = 0.898	750.406	1074.1
295.65 K, x1 = 0.95	744.068	1059.8
295.65 K, x1 = 1	737.374	1042.2
298.15 K, x1 = 0.05	853.541	1302.9
298.15 K, x1 = 0.099	847.315	1289.8
298.15 K, x1 = 0.2	834.815	1260.8
298.15 K, x1 = 0.3	822.108	1231.6
298.15 K, x1 = 0.4	809.656	1202.6
298.15 K, x1 = 0.497	797.343	1173.8
298.15 K, x1 = 0.598	784.785	1145.1
298.15 K, x1 = 0.698	772.587	1118.2
298.15 K, x1 = 0.8	760.251	1089.5
298.15 K, x1 = 0.898	747.878	1063
298.15 K, x1 = 0.95	741.515	1048.7
298.15 K, x1 = 1	734.806	1031
300.65 K, x1 = 0.05	851.372	1292.5
300.65 K, x1 = 0.099	845.128	1279.3
300.65 K, x1 = 0.2	832.584	1250.2
300.65 K, x1 = 0.3	819.837	1221
300.65 K, x1 = 0.4	807.341	1191.8
300.65 K, x1 = 0.497	794.987	1163.1
300.65 K, x1 = 0.598	782.385	1134.2
300.65 K, x1 = 0.698	770.145	1107.3
300.65 K, x1 = 0.8	757.762	1078.4
300.65 K, x1 = 0.898	745.343	1051.9
300.65 K, x1 = 0.95	738.954	1037.6
300.65 K, x1 = 1	732.225	1019.8
303.15 K, x1 = 0.05	849.201	1282.1
303.15 K, x1 = 0.099	842.934	1268.9
303.15 K, x1 = 0.2	830.351	1239.8
303.15 K, x1 = 0.3	817.559	1210.3
303.15 K, x1 = 0.4	805.022	1181.2
303.15 K, x1 = 0.497	792.628	1152.3
303.15 K, x1 = 0.598	779.979	1123.3
303.15 K, x1 = 0.698	767.695	1096.3
303.15 K, x1 = 0.8	755.266	1067.5
303.15 K, x1 = 0.898	742.8	1040.8
303.15 K, x1 = 0.95	736.382	1026.5
303.15 K, x1 = 1	729.647	1008.6
305.65 K, x1 = 0.05	–	1271.7
305.65 K, x1 = 0.099	–	1258.6
305.65 K, x1 = 0.2	–	1229.3
305.65 K, x1 = 0.3	–	1199.8
305.65 K, x1 = 0.4	–	1170.5
305.65 K, x1 = 0.497	–	1141.6
305.65 K, x1 = 0.598	–	1112.5
305.65 K, x1 = 0.698	–	1085.4
305.65 K, x1 = 0.8	–	1056.5
305.65 K, x1 = 0.898	–	1029.8
305.65 K, x1 = 0.95	–	1015.3
305.65 K, x1 = 1	–	997.52
